The compounds below were run against T1, SMS2 (Homo sapiens, UniProt Q8NHU3) (assay: SMS2 inhibitory activity in vitro, HPLC fluorescence quantitative detection (C6-NBD-ceramide to C6-NBD-SM)). Conditions: 1 µM test compound; SMS2 pure enzyme; 37°C, 30 minutes; average of two measurements; read-out: Inhibition rate on SMS2 at C/µM 1.
T1 construct: CAO, Yu research team, National Protein Scientific Center (Shanghai); supplied by an outside laboratory, not a commercial vendor
T1 sequence (Q8NHU3 1-365): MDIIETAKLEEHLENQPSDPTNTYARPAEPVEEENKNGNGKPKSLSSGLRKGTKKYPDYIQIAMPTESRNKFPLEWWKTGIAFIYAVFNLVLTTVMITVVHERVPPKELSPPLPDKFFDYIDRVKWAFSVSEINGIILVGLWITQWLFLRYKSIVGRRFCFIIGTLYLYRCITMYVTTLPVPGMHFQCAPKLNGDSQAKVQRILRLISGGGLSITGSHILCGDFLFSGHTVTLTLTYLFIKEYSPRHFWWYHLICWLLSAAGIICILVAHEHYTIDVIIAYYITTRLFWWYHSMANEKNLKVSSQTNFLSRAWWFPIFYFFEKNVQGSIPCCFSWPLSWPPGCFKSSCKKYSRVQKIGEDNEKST
Assay type: biochemical
From the text: • 1. Electro-thermostatic water bath, from Shanghai Yiheng Technology Co., Ltd.); • 2. Vortex Mixer, with model ID of XW-80A, from Shanghai Jingke Industrial Co., Ltd.; • 3. […] High Performance Liquid Chromatography Agilent 1100, equipped with a quaternary pump, vacuum degassing, and FLD fluorescence detector, from Agilent Technologies, Palo Alto, CA, USA; • 5. HPLC column COSMOSIL 5C18-MS-II (4.6mm I.D. X 250mm); • 6. […] The organic solvents used in the present disclosure were purchased from Shanghai National Reagent Company, wherein methanol was pure chromatography; water was ultra-pure water which is filtrated by Milli-Q pump, deionized and ultra-filtrated with 0.22 µm membrane; and other biological consumables were purchased from domestic companies; • 8. Preparation of test compound solutions: each test compound was accurately weighed and dissolved in an appropriate volume of DMSO to prepare a 10 mmol/L stock solution. The stock solution was then diluted with an appropriate volume of DMSO to achieve the desired working concentration; • 9. SMS2 pure enzyme, DDM solution and buffer solution were provided by CAO, Yu research team from National Protein Scientific Center (Shanghai).
79 µl of the diluted enzyme solution were transferred into a 1.5 mL EP tube, 1 µl of inhibitor DMSO solution were added thereto, vortexing for 15 seconds, followed by standing at room temperature for 5 minutes. 20 µl of a mixed solution of DMPC and C6-NBD-ceramide were added, vortexing for 15 seconds, and incubated at 37°C for 30 minutes. 200 µl of anhydrous ethanol were added to quench the reaction, vortexing for 15 seconds. 200 µl of the reaction solution were taken out and stored at 4°C and avoided light for HPLC detection.
The peak area values of A(sm) and A(ceramide) in the HPLC chromatogram corresponding to C6-NBD-SM and C6-NBD-Ceramide in the DMSO group and inhibitor group samples were analyzed and recorded, and the inhibition rate of the test compound was calculated according to the following formula. Inhibition rate = (Peak area values of DMSO group−Peak area values of Inhibitor group)/(Peak area values of DMSO group) × 100% [formula]

SMILES | inhibition at 1 µM [%]
O=C(Nc1cc(C(F)(F)F)ccn1)c1sccc1OCc1ccccc1 [1-5, 3-benzyloxy-N-(4-(trifluoromethyl)pyridin-2-yl)thiophene-2-carboxamide] | 47
O=C(Nc1cccnc1)c1sccc1OCc1cccc2ccccc12 [1-10, 3-(naphthalen-1-ylmethoxy)-N-(pyridin-3-yl)thiophene-2-carboxamide] | 86
O=C(Nc1cccnc1)c1sccc1OCc1cccc2cccnc12 [1-12, N-(pyridin-3-yl)-3-(quinolin-8-ylmethoxy)thiophene-2-carboxamide] | 68
O=C(Nc1cccnc1)c1sccc1OCc1c2ccccc2cc2ccccc12 [1-13, 3-(anthracen-9-ylmethoxy)-N-(pyridin-3-yl)thiophene-2-carboxamide] | 50
COc1ccc2ccccc2c1COc1ccsc1C(=O)Nc1cccnc1 [1-16, 3-[(2-methoxynaphthalen-1-yl)methoxy]-N-(pyridin-3-yl)thiophene-2-carboxamide] | 78
O=C(Nc1cccnc1)c1sccc1OCc1cc(OP(=O)(O)O)ccc1Cl [1-26] | 13

The remaining lines, values ahead:

inhibition at 1 µM [%] | SMILES
50 | O=C(Nc1cc(Cl)cc(Cl)n1)c1sccc1OCc1ccccc1 [1-20, 3-benzyloxy-N-(4,6-Dichloropyridin-2-yl)thiophene-2-carboxamide]
78 | O=C(Nc1cccnc1)c1sccc1OCc1cc(O)ccc1Cl [1-24, 3-(2-chloro-5-hydroxybenzyloxy)-N-(pyridin-3-yl)thiophene-2-carboxamide]
91 | CCCCCOc1cccc(Cl)c1COc1ccsc1C(=O)Nc1cccnc1 [1-38, 3-(2-(n-pentyloxy)-6-chlorobenzyloxy)-N-(pyridin-3-yl)thiophene-2-carboxamide]
74 | CCCOc1cccc(Cl)c1COc1ccsc1C(=O)Nc1cccnc1 [1-39, 3-(2-chloro-6-propoxybenzyloxy)-N-(pyridin-3-yl)thiophene-2-carboxamide]
23 | Cc1cc(OCc2ccccc2)c(C(=O)Nc2cccnc2)s1 [1-40, 3-benzyloxy-5-methyl-N-(pyridin-3-yl)thiophene-2-carboxamide]
72 | Cc1ccccc1COc1ccsc1C(=O)Nc1cccnc1 [1-41, 3-(2-methylbenzyloxy)-N-(pyridin-3-yl)thiophene-2-carboxamide]
69 | Cc1cccc(COc2ccsc2C(=O)Nc2cccnc2)c1 [1-43, 3-(3-methylbenzyloxy)-N-(pyridin-3-yl)thiophene-2-carboxamide]
54 | O=C(Nc1cccnc1)c1sccc1OCc1ccccc1F [1-44, 3-(2-fluorobenzyloxy)-N-(pyridin-3-yl)thiophene-2-carboxamide]
67 | O=C(Nc1cccnc1)c1sccc1OCc1cccc(F)c1 [1-45, 3-(3-fluorobenzyloxy)-N-(pyridin-3-yl)thiophene-2-carboxamide]
87 | O=C(Nc1cccnc1)c1sccc1OCc1ccccc1OC(F)(F)F [1-53, 3-(2-(trifluoromethoxy)benzyloxy)-N-(pyridin-3-yl)thiophene-2-carboxamide]
70 | COc1cccc(COc2ccsc2C(=O)Nc2cccnc2)c1 [1-58, 3-(3-methoxybenzyloxy)-N-(pyridin-3-yl)thiophene-2-carboxamide]
71 | O=C(Nc1cccnc1)c1sccc1OCc1ccccc1C(F)(F)F [1-59, 3-(2-(trifluoromethyl)benzyloxy)-N-(pyridin-3-yl)thiophene-2-carboxamide]

Same assay, conditions: 10 µM test compound; SMS2 pure enzyme; 37°C, 30 minutes; average of two measurements; read-out: Inhibition rate on SMS2 at C/µM 10

SMILES | inhibition at 10 µM [%]
O=C(Nc1cccnc1)c1sccc1OCc1c(Cl)cccc1Cl [1-3, 3-(2,6-dichlorobenzyloxy)-N-(pyridin-3-yl)thiophene-2-carboxamide] | 97
O=C(Nc1cccnn1)c1sccc1OCc1ccccc1 [1-4, 3-benzyloxy-N-(pyridazin-3-yl)thiophene-2-carboxamide] | 63
O=C(Nc1cc(Cl)ccn1)c1sccc1OCc1ccccc1 [1-6, 3-benzyloxy-N-(4-chloropyridin-2-yl)thiophene-2-carboxamide] | 50
O=C(Nc1ccccc1)c1sccc1OCc1ccccc1 [1-7, 3-benzyloxy-N-phenylthiophen-2-carboxamide] | 50
CC(C)(O)COc1ccc(F)cc1COc1ccsc1C(=O)Nc1cccnc1 [1-8, 3-(5-fluoro-2-(2-hydroxy-2-methylpropoxy)benzyloxy)-N-(pyridin-3-yl)thiophene-2-carboxamide] | 56
O=C(Nc1cccc(O)n1)c1sccc1OCc1ccccc1 [1-9, 3-benzyloxy-N-(6-hydroxypyridine-2-yl)thiophene-2-carboxamide] | 50
O=C(Nc1cccnc1)c1sccc1OCc1ccc2ccccc2c1 [1-11, 3-(naphthalen-2-ylmethoxy)-N-(pyridin-3-yl)thiophene-2-carboxamide] | 50
O=C(Nc1cccnc1)c1sc([N+](=O)[O-])cc1OCc1ccccc1 [1-14, 3-benzyloxy-5-nitro-N-(pyridin-3-yl)thiophene-2-carboxamide] | 50
O=C(Nc1cccnc1)c1scc(Br)c1OCc1ccccc1 [1-15, 3-benzyloxy-4-bromo-N-(pyridin-3-yl)thiophene-2-carboxamide] | 53
O=C(O)CCCCCOc1ccccc1COc1ccsc1C(=O)Nc1cccnc1 [1-17, 6-(2-[(2-(pyridin-3-ylcarbamoyl)thiophene-3-yl)oxymethyl]phenoxy)hexanoic acid] | 50
CCOC(=O)CCCCCOc1ccccc1COc1ccsc1C(=O)Nc1cccnc1 [1-18, 6-(2-[(2-(pyridin-3-ylcarbamoyl)thiophene-3-yl)oxymethyl]phenoxy)ethyl hexanoate] | 97
O=C(Nc1cccnc1)c1sccc1OCc1cccc2c1Oc1c(F)c(F)c(F)c(F)c1O2 [1-19, N-(pyridin-3-yl)-3-[(6,7,8,9-tetrafluorodibenzo[b,e][1,4]dioxin-1-yl)methoxy]thiophene-2-carboxamide] | 77

Other lines, results leading:

inhibition at 10 µM [%] | SMILES
93 | O=C(Nc1cccnc1)c1sccc1OCc1ccccc1[N+](=O)[O-] [1-21, 3-(2-nitrobenzyloxy)-N-(pyridin-3-yl)thiophene-2-carboxamide]
81 | COC(=O)c1ccccc1COc1ccsc1C(=O)Nc1cccnc1 [1-22, 2-[(2-(pyridin-3-ylcarbamoyl)thiophene-3-yl)oxymethyl]methyl benzoate]
53 | CC(C)(C)C(=O)Oc1ccc(Cl)c(COc2ccsc2C(=O)Nc2cccnc2)c1 [1-23]
50 | Cc1ccc(COc2ccsc2C(=O)Nc2cccnc2)cc1 [1-42, 3-(4-methylbenzyloxy)-N-(pyridin-3-yl)thiophene-2-carboxamide]
70 | O=C(Nc1cccnc1)c1sccc1OCc1ccc(F)cc1 [1-46, 3-(4-fluorobenzyloxy)-N-(pyridin-3-yl)thiophene-2-carboxamide]
66 | N#Cc1ccccc1COc1ccsc1C(=O)Nc1cccnc1 [1-50, 3-(2-cyanobenzyloxy)-N-(pyridin-3-yl)thiophene-2-carboxamide]
60 | N#Cc1cccc(COc2ccsc2C(=O)Nc2cccnc2)c1 [1-51, 3-(3-cyanobenzyloxy)-N-(pyridin-3-yl)thiophene-2-carboxamide]
50 | N#Cc1ccc(COc2ccsc2C(=O)Nc2cccnc2)cc1 [1-52, 3-(4-cyanobenzyloxy)-N-(pyridin-3-yl)thiophene-2-carboxamide]
57 | O=C(Nc1cccnc1)c1sccc1OCc1ccc(OC(F)(F)F)cc1 [1-54, 3-(4-(trifluoromethoxy)benzyloxy)-N-(pyridin-3-yl)thiophene-2-carboxamide]
65 | O=C(Nc1cccnc1)c1sccc1OCc1cccc(OC(F)(F)F)c1 [1-55, 3-(3-(trifluoromethoxy)benzyloxy)-N-(pyridin-3-yl)thiophene-2-carboxamide]
50 | COc1ccc(COc2ccsc2C(=O)Nc2cccnc2)cc1 [1-56, 3-(4-methoxybenzyloxy)-N-(pyridin-3-yl)thiophene-2-carboxamide]

From patent EP4768480A1, “ALKOXY THIOPHENE ACYL ARYLAMINE COMPOUNDS AND USE THEREOF” (priority 2024, dated 2025)
